Experimental data from ChEMBL document CHEMBL5247607, “Design, synthesis and biological evaluation of a new series of arylidene indanones as small molecules for targeted therapy of non-small cell lung carcinoma and prostate cancer” (Eur J Med Chem, 2022).
Calls of active or inactive are those of the source. The rule behind the calls is not given here.

Assays:
PANC-1 [1] = assay: Cytotoxicity against human PANC-1 cells assessed as inhibition of cell growth incubated for 24 hrs by MTT assay; type: functional, cell-based; settings: PANC-1, 24 h
[2] = Selectivity index, ratio of IC50 for cytotoxicity against human CCD 19Lu cells to IC50 for cytotoxicity against human A549 cells; type: toxicity, cell-based; settings: CCD 19Lu cells versus A549 cells, read-out: Ratio IC50
[3] = Selectivity index, ratio of IC50 for cytotoxicity against human hTERT-HPNE cells to IC50 for cytotoxicity against human PANC-1 cells; type: toxicity, cell-based; settings: hTERT-HPNE cells versus PANC-1 cells, read-out: Ratio IC50
A549 [4] = assay: Cytotoxicity against human A549 cells assessed as inhibition of cell growth incubated for 24 hrs by MTT assay; type: functional, cell-based; settings: A549, 24 h
[5] = Cytotoxicity against human CCD 19Lu cells assessed as inhibition of cell growth incubated for 24 hrs by MTT assay; type: toxicity, cell-based
[6] = target: Cathepsin D (Homo sapiens) (UniProt P07339); assay: Inhibition of cathepsin D (unknown origin) at 100 uM relative to control
[7] = target: Procathepsin L (Homo sapiens) (UniProt P07711); assay: Inhibition of cathepsin L (unknown origin) at 100 uM
[8] = Cytotoxicity against human hTERT-HPNE cells assessed as inhibition of cell growth incubated for 24 hrs by MTT assay; type: toxicity, cell-based
A549 [9] = assay: Induction of morphological changes in human A549 cells assessed as formation of apoptotic bodies at 5.96 uM incubated for 24 hrs by acridine orange/ethidium bromide staining based fluorescence microscopic analysis; type: functional, cell-based
PANC-1 [10] = assay: Induction of morphological changes in human PANC-1 cells assessed as formation of apoptotic bodies at 5.96 uM incubated for 24 hrs by acridine orange/ethidium bromide staining based fluorescence microscopic analysis; type: functional, cell-based
A549 [11] = assay: Inhibition of DNA synthesis in human A549 cells at 5.96 uM incubated for 24 hrs by BrdU incorporation assay relative to control; type: functional
A549 [12] = assay: Induction of apoptosis in human A549 cells assessed as late apoptotic cells at IC50 incubated for 24 hrs by annexin V-FITC/PI staining based flow cytometry analysis (reference value: 6.5 %); type: functional
PANC-1 [13] = assay: Induction of apoptosis in human PANC-1 cells assessed as total cell viability at IC50 incubated for 24 hrs by annexin V-FITC/PI staining based flow cytometry analysis (reference value: 84.4%); type: functional
A549 [14] = assay: Induction of apoptosis in human A549 cells assessed as activation of caspase-3 by measuring caspase-3 negative cells at IC50 incubated for 24 hrs by flow cytometry analysis (reference value: 91.1%); type: functional
PANC-1 [15] = assay: Induction of apoptosis in human PANC-1 cells assessed as late apoptotic cells at IC50 incubated for 24 hrs by annexin V-FITC/PI staining based flow cytometry analysis (reference value: 0.2%); type: functional
A549 [16] = assay: Induction of morphological changes in human A549 cells assessed as cell shrinkage at 5.96 uM incubated for 24 hrs by acridine orange/ethidium bromide staining based fluorescence microscopic analysis; type: functional
PANC-1 [17] = assay: Induction of apoptosis in human PANC-1 cells assessed as activation of caspase-3 by measuring caspase-3 negative cells at IC50 incubated for 24 hrs by flow cytometry analysis (reference value: 98.5 %); type: functional
A549 [18] = assay: Induction of morphological changes in human A549 cells assessed as chromatin condensation at 5.96 uM incubated for 24 hrs by acridine orange/ethidium bromide staining based fluorescence microscopic analysis; type: functional, cell-based
PANC-1 [19] = assay: Induction of apoptosis in human PANC-1 cells assessed as activation of caspase-3 by measuring caspase-3 positive cells at IC50 incubated for 24 hrs by flow cytometry analysis (reference value: 1.8%); type: functional
A549 [20] = assay: Induction of apoptosis in human A549 cells assessed as total cell viability at IC50 incubated for 24 hrs by annexin V-FITC/PI staining based flow cytometry analysis (reference value: 85.6 %); type: functional
PANC-1 [21] = assay: Induction of morphological changes in human PANC-1 cells assessed as cell shrinkage at 5.96 uM incubated for 24 hrs by acridine orange/ethidium bromide staining based fluorescence microscopic analysis; type: functional
PANC-1 [22] = assay: Inhibition of DNA synthesis in human PANC-1 cells at 5.96 uM incubated for 24 hrs by BrdU incorporation assay relative to control; type: functional
PANC-1 [23] = assay: Induction of apoptosis in human PANC-1 cells assessed as early apoptotic cells at IC50 incubated for 24 hrs by annexin V-FITC/PI staining based flow cytometry analysis (reference value: 0%); type: functional
A549 [24] = assay: Inhibition of DNA synthesis in human A549 cells at 2.98 uM incubated for 24 hrs by BrdU incorporation assay relative to control; type: functional
A549 [25] = assay: Inhibition of DNA synthesis in human A549 cells at 1.49 uM incubated for 24 hrs by BrdU incorporation assay relative to control; type: functional
A549 [26] = assay: Induction of apoptosis in human A549 cells assessed as early apoptotic cells at IC50 incubated for 24 hrs by annexin V-FITC/PI staining based flow cytometry analysis (reference value: 5.6%); type: functional
A549 [27] = assay: Induction of apoptosis in human A549 cells assessed as activation of caspase-3 by measuring caspase-3 positive cells at IC50 incubated for 24 hrs by flow cytometry analysis (reference value: 8.4%); type: functional
A549 [28] = assay: Induction of mitochondrial membrane potential loss in human A549 cells assessed as depolarized cells at IC50 incubated for 24 hrs by JC-1 staining based flow cytometry assay (reference value: 6.9%); type: functional
A549 [29] = assay: Induction of apoptosis in human A549 cells assessed as increase in intracellular calcium level at 5.96 uM by Fluo-4-AM staining based flow cytometry analysis; type: functional, cell-based
A549 [30] = assay: Induction of mitochondrial membrane potential loss in human A549 cells assessed as polarized cells at IC50 incubated for 24 hrs by JC-1 staining based flow cytometry assay (reference value: 90.6%); type: functional
PANC-1 [31] = assay: Induction of morphological changes in human PANC-1 cells assessed as chromatin condensation at 5.96 uM incubated for 24 hrs by acridine orange/ethidium bromide staining based fluorescence microscopic analysis; type: functional, cell-based
PANC-1 [32] = assay: Induction of mitochondrial membrane potential loss in human PANC-1 cells assessed as depolarized cells at IC50 incubated for 24 hrs by JC-1 staining based flow cytometry assay (reference value: 5%); type: functional
PANC-1 [33] = assay: Induction of mitochondrial membrane potential loss in human PANC-1 cells assessed as polarized cells at IC50 incubated for 24 hrs by JC-1 staining based flow cytometry assay (reference value: 92%); type: functional
[34] = target: Procathepsin L (Homo sapiens) (UniProt P07711); assay: Inhibition of cathepsin L (unknown origin) at 100 uM relative to control
[35] = target: Cathepsin D (Homo sapiens) (UniProt P07339); assay: Inhibition of cathepsin D (unknown origin) at 100 uM
A549 [36] = assay: Inhibition of DNA synthesis in human A549 cells at IC50 incubated for 24 hrs by BrdU incorporation assay relative to control; type: functional
A549 [37] = assay: Induction of morphological changes in human A549 cells assessed as chromatin condensation at 15.33 uM incubated for 24 hrs by acridine orange/ethidium bromide staining based fluorescence microscopic analysis; type: functional, cell-based
PANC-1 [38] = assay: Induction of morphological changes in human PANC-1 cells assessed as formation of apoptotic bodies at 10.04 uM incubated for 24 hrs by acridine orange/ethidium bromide staining based fluorescence microscopic analysis; type: functional, cell-based
PANC-1 [39] = assay: Inhibition of DNA synthesis in human PANC-1 cells at 10.04 uM incubated for 24 hrs by BrdU incorporation assay relative to control; type: functional
PANC-1 [40] = assay: Induction of morphological changes in human PANC-1 cells assessed as cell shrinkage at 10.04 uM incubated for 24 hrs by acridine orange/ethidium bromide staining based fluorescence microscopic analysis; type: functional
A549 [41] = assay: Induction of morphological changes in human A549 cells assessed as cell shrinkage at 15.33 uM incubated for 24 hrs by acridine orange/ethidium bromide staining based fluorescence microscopic analysis; type: functional
PANC-1 [42] = assay: Induction of morphological changes in human PANC-1 cells assessed as chromatin condensation at 10.04 uM incubated for 24 hrs by acridine orange/ethidium bromide staining based fluorescence microscopic analysis; type: functional, cell-based
A549 [43] = assay: Induction of morphological changes in human A549 cells assessed as formation of apoptotic bodies at 15.33 uM incubated for 24 hrs by acridine orange/ethidium bromide staining based fluorescence microscopic analysis; type: functional, cell-based
A549 [44] = assay: Inhibition of DNA synthesis in human A549 cells at IC50/4 incubated for 24 hrs by BrdU incorporation assay relative to control; type: functional
A549 [45] = assay: Inhibition of DNA synthesis in human A549 cells at IC50/2 incubated for 24 hrs by BrdU incorporation assay relative to control; type: functional

Sequence of Cathepsin D (Homo sapiens) (P07339 65-162 limits assumed): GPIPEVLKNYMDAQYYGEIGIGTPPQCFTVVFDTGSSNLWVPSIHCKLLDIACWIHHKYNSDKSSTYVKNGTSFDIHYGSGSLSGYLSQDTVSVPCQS
Sequence of Cathepsin D (Homo sapiens) (P07339 169-412 limits assumed): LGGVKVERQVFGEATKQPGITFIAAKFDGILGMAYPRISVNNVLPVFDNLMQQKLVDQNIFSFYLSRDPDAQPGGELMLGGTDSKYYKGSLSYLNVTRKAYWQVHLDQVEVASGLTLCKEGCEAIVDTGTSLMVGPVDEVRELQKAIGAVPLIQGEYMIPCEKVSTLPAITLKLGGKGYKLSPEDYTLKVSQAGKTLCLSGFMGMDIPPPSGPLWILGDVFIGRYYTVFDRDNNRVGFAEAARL
Sequence of Procathepsin L (Homo sapiens) (P07711 114-333 limits assumed): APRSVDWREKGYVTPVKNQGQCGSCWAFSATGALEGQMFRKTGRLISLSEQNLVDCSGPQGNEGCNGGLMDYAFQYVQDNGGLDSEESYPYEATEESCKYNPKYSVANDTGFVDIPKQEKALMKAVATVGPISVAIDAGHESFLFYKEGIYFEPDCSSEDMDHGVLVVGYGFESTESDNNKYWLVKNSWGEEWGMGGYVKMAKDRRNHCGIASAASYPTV

inhibition [6] [%]	inhibition [7]	Compound	IC50 (PANC-1 [1]) [µM]	selectivity ratio [2]	selectivity ratio [3]	IC50 (A549 [4]) [µM]	IC50 at 24 h [5] [µM]	IC50 at 24 h [8] [µM]	Activity (A549 [12]) [%]	Activity (PANC-1 [13]) [%]	Activity (A549 [14]) [%]	Activity (PANC-1 [15]) [%]	Activity (PANC-1 [17]) [%]	Activity (PANC-1 [19]) [%]	Activity (A549 [20]) [%]	Activity (PANC-1 [23]) [%]	Activity (A549 [26]) [%]	Activity (A549 [27]) [%]	Activity (A549 [28]) [%]	Activity (A549 [30]) [%]	other results
34.9	inactive	O=C1/C(=C/c2ccc(N3CCOCC3)cc2)Cc2cc3c(cc21)OCO3	219	> 25.6	5.52	55.8	> 1430	1210													
30.4	inactive	CCN(CC)c1ccc(/C=C2\Cc3cc4c(cc3C2=O)OCO4)cc1	< 11.6	> 128	> 128	< 11.6	> 1490	> 1490	27	90.9	96.1	1.5	97.6	3.1	38.8	3.5	26.7	3.9	66.8	65.1	Activity (A549 [9]): Active; Activity (PANC-1 [10]): Active; inhibition at 5.96 µM (A549 [11]): 39.6%; Activity (A549 [16]): Active; Activity (A549 [18]): Active; Activity (PANC-1 [21]): Active; inhibition at 5.96 µM (PANC-1 [22]): 23.6%; inhibition at 2.98 µM (A549 [24]): 24.2%; inhibition at 1.49 µM (A549 [25]): 22.1%; Activity (A549 [29]): Active; Activity (PANC-1 [31]): Active; Activity (PANC-1 [32]): 68.4%; Activity (PANC-1 [33]): 29.7%
		O=C1/C(=C/c2ccc(-n3ccnc3)cc2)Cc2cc3c(cc21)OCO3	71.1	> 11.4	2.16	132	> 1510	153													inhibition [34]: 24.8%; inhibition [35]: inactive
	inactive	O=C1/C(=C/c2ccc(OCCN3CCOCC3)cc2)Cc2cc3c(cc21)OCO3	10	10.4	> 127	15.3	160	> 1270	5.6	9.5	93.2	0.5	93.6	7.3	82.4	0.1	10.4	6.9	35	62.8	inhibition (INH) (A549 [36]): 19.99%; Activity (A549 [37]): Active; Activity (PANC-1 [38]): Active; inhibition at 10.04 µM (PANC-1 [39]): 18.4%; Activity (PANC-1 [40]): Active; Activity (A549 [41]): Active; Activity (PANC-1 [42]): Active; inhibition [35]: inactive; Activity (A549 [43]): Active; Activity (PANC-1 [32]): 61.2%; inhibition (INH) (A549 [44]): 4.83%; Activity (PANC-1 [33]): 37.8%; inhibition (INH) (A549 [45]): 9.78%
